This series in a line: physchem. As to the method:
An additional 2 mL of water was added to give a clear solution. […] This was allowed to stir for two days at ambient temperature. The solids were filtered and washed with 15 mL of (2:1 v:v) 1-propanol:water, 15 mL of 1-propanol, then 2×15 mL of methyl tert-butyl ether.

As usually defined, the solubility is the concentration that dissolves in the medium under given conditions.

≈ marks a conversion by molar mass, not a printed value.

On to `O=C([O-])c1ccc[n+]([C@@H]2O[C@H](COP(=O)(O)O)[C@@H](O)[C@H]2O)c1` [Compound 2, Nicotinic acid mononucleotide], for which the “water solubility as ratio water:Compound 2” value is recorded as 50:1 w:w. Besides, the solubility (water) is about 20 mg/mL (≈ 59.7 mM).

The values are drawn from patent publication US11787830B2, “Crystalline solids of nicotinic acid mononucleotide and esters thereof and methods of making and use” (Metro International Biotech, LLC, priority 2021, dated 2023).
